This note sets out measurements from ChEMBL document CHEMBL3588849, “New indole-isoxazolone derivatives: Synthesis, characterisation and in vitro SIRT1 inhibition studies” (Bioorg Med Chem Lett, 2015).

As a reminder, the IC50 is the concentration at which inhibition is half-maximal.

Each structure is given as a SMILES string.

The test system of series [1] is HEK293. The series can be described thus: (§1) Cytotoxicity against HEK293 cells after 72 hrs by MTT assay. It is filed as cell-based. To be noted: human, hek293, 72 h.
In series [2] the test system is MDA-MB-231. Description: Cytotoxicity against human MDA-MB-231 cells after 72 hrs by MTT assay. Conditions: MDA-MB-231, 72 h. The series is classed as functional, cell-based. Background: Tetrazolium assays rely on reduction of a dye to a coloured formazan, in cell work by metabolically active cells.
In series [3] the test system is MCF7. The series can be described thus: Cytotoxicity against human MCF7 cells after 72 hrs by MTT assay. To be noted: MCF7, 72 h. The series is classed as functional, cell-based.
Series [4] has as its system HT-29. Description: Cytotoxicity against human HT-29 cells after 72 hrs by MTT assay. To be noted: HT-29, 72 h. The series is classed as functional, cell-based.
Series [5] can be described thus: as §1. Conditions: human, HEK293 cells; read-out: GI. The series is classed as cell-based.
The target of series [6] is T1, NAD-dependent protein deacetylase sirtuin-1 (Homo sapiens, UniProt Q96EB6).
T1 sequence (Q96EB6 whole entry): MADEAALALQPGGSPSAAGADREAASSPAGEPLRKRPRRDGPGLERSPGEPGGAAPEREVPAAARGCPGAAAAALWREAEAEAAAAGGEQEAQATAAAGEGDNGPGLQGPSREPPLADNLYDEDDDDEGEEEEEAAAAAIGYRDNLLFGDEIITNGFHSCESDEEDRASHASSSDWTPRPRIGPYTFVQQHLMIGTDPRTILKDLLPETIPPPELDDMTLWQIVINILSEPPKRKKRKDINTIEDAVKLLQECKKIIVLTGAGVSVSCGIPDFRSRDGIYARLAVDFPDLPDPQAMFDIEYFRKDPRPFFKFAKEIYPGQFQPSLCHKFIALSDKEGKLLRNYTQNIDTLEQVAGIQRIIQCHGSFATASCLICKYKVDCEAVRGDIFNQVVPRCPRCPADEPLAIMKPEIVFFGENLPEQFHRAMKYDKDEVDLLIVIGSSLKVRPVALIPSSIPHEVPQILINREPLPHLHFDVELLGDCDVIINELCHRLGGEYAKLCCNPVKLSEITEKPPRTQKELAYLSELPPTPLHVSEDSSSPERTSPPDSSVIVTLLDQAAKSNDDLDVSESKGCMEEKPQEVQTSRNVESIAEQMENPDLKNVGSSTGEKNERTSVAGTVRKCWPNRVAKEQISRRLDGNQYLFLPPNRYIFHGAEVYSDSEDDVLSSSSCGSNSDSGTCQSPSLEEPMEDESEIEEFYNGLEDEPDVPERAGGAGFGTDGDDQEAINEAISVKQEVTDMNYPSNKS
Description: Inhibition of SIRT1 (unknown origin) using AMC-Arg-His-Lys-Lys(Ac) substrate assessed as deacetylation of substrate by fluorimetric enzyme assay.

As for `CC1=NOC(=O)/C1=C/c1c(COCc2cn(Cc3ccc(OC(F)(F)F)cc3)nn2)n(C)c2ccc(F)cc12`, the Activity entry in series [1] is “Non-toxic”.

In the case of `Nc1ccn([C@@H]2O[C@H](CO)[C@@H](O)C2(F)F)c(=O)n1` [GEMCITABINE], the values for the concentration for half-maximal inhibition (IC50) in series [2], in series [3] and in series [4] were 0.65 µM, 0.15 µM and 0.52 µM, respectively.

For `CCN1CCN(C(=O)c2c(/C=C3/C(=O)ON=C3C(F)(F)F)c3cc(F)ccc3n2C)CC1`, the inhibition at 72 h in series [5] turned out to be 30%.

With `CC1=NOC(=O)/C1=C/c1c(C(=O)NCc2ccc(F)cc2)n(C)c2ccc(F)cc12`, in series [1], the Activity entry is reported as “Non-toxic”.

On to `CC1=NOC(=O)/C1=C/c1c(C(=O)Nc2ccc(OC(F)(F)F)cc2)n(C)c2ccc(F)cc12`, for which the Activity entry in series [1] is listed as “Non-toxic”.

In the case of `CCN1CCN(C(=O)c2c(/C=C3/C(=O)ON=C3C)c3cc(F)ccc3n2C)CC1`, the Activity result in series [1] was “Non-toxic”.

With `CC1=NOC(=O)/C1=C/c1c(COCc2ccc(C(F)(F)F)cc2)n(C)c2ccc(F)cc12`, the Activity result in series [1] is listed as “Non-toxic”. The IC50 in series [2] was found to be 8.23 µM; in series [3], 7.72 µM; in series [4] it was 4.82 µM; in series [6], 35.2 µM.

Take `CC1=NOC(=O)/C1=C/c1c(C(=O)NCc2ccc(OC(F)(F)F)cc2)n(C)c2ccc(F)cc12`: the Activity result in series [1] is given as “Non-toxic”.

Turning to `Cn1c(C(=O)N2CCOCC2)c(/C=C2/C(=O)ON=C2C(F)(F)F)c2cc(F)ccc21`, in series [1], the Activity result is “Non-toxic”.

Turning to `Cn1c(COCc2cn(Cc3ccc(C#N)cc3)nn2)c(/C=C2/C(=O)ON=C2C(F)(F)F)c2cc(F)ccc21`, the Activity entry in series [1] was “Non-toxic”.

For `CC1=NOC(=O)/C1=C/c1c(COCc2ccc(C#N)cc2)n(C)c2ccc(F)cc12`, in series [1], the Activity entry is given as “Non-toxic”.

As to `Cn1c(C(=O)NCc2ccc(F)cc2)c(/C=C2/C(=O)ON=C2C(F)(F)F)c2cc(F)ccc21`, the Activity result in series [1] is on record as “Non-toxic”.

`CC1=NOC(=O)/C1=C/c1c(C(=O)N2CCOCC2)n(C)c2ccc(F)cc12`: in series [1], the Activity result was “Non-toxic”.

Regarding `Cn1c(COCc2cn(Cc3ccc([N+](=O)[O-])cc3)nn2)c(/C=C2/C(=O)ON=C2C(F)(F)F)c2cc(F)ccc21`, the Activity result in series [1] is “Non-toxic”.

As for `CC1=NOC(=O)/C1=C/c1c(COCc2cn(Cc3ccc(C(F)(F)F)cc3)nn2)n(C)c2ccc(F)cc12`, the inhibition at 72 h in series [5] came to 30%.

Consider `Cn1c(COCc2cn(Cc3ccc(OC(F)(F)F)cc3)nn2)c(/C=C2/C(=O)ON=C2C(F)(F)F)c2cc(F)ccc21`, for which, in series [1], the Activity entry is “Non-toxic”.

Consider `Cn1c(COCc2ccc(C(F)(F)F)cc2)c(/C=C2/C(=O)ON=C2C(F)(F)F)c2cc(F)ccc21`, for which the Activity result in series [1] was “Non-toxic”. In addition, the IC50 in series [2] amounted to 5.03 µM; in series [3], 5.51 µM; in series [4], 2.59 µM; in series [6], 37.4 µM.

In the case of `CC1=NOC(=O)/C1=C/c1c(COCc2cn(Cc3ccc(C#N)cc3)nn2)n(C)c2ccc(F)cc12`, in series [1], the Activity entry is “Non-toxic”.

As to `CC1=NOC(=O)/C1=C/c1c(C(=O)NCc2ccc(C)cc2)n(C)c2ccc(F)cc12`, the Activity result in series [1] is given as “Non-toxic”.
